Test results reported in ChEMBL document CHEMBL1144295, “Active site directed inhibitors of replication-specific bacterial DNA polymerases” (Bioorg Med Chem Lett, 2005).

How the values were obtained:
[1] = target: T1, DNA polymerase III PolC-type (Bacillus subtilis (strain 168), UniProt P13267); experiment: Inhibitory constant against DNA polymerases IIIC produced by Bacillus subtilis; (a)
[2] = target: T2, DNA polymerase III subunit alpha (Escherichia coli K-12, UniProt P10443); experiment: Inhibition against DNA polymerases IIIE from Escherichia coli; (a); IN=<10% inhibition at highest concentration tested
T2 sequence (P10443 whole entry): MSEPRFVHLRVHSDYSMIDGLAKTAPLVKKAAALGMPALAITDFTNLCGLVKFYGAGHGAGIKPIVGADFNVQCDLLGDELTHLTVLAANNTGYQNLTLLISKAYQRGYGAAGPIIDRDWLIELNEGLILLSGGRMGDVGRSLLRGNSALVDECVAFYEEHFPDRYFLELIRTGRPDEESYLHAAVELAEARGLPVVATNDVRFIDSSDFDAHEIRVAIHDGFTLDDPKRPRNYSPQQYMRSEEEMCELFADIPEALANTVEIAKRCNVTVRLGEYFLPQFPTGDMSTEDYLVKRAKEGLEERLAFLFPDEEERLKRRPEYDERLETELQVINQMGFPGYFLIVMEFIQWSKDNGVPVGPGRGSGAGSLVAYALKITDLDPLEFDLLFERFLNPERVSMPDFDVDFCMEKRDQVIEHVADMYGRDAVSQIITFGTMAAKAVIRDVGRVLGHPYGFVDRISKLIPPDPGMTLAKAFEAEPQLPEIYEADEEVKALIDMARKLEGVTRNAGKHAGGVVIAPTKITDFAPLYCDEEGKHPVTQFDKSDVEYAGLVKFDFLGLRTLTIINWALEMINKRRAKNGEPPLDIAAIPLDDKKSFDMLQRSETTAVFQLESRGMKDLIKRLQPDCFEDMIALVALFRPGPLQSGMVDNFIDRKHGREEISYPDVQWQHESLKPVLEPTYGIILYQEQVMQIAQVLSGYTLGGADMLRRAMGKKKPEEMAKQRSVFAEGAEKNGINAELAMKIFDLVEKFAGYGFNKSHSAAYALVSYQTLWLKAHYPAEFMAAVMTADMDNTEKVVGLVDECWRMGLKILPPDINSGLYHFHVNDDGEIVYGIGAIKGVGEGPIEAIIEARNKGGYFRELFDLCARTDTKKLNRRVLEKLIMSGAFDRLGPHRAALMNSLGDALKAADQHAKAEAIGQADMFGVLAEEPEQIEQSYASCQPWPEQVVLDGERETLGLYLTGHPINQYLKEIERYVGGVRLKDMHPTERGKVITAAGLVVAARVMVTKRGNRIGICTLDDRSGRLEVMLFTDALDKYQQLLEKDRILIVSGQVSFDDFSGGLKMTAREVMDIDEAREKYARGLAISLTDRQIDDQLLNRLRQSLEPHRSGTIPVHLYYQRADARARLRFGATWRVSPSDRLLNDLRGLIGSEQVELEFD

[3] = target: T3, DNA polymerase III subunit alpha (Bacillus subtilis (strain 168), UniProt O34623); experiment: Inhibition of DNA polymerases IIIE from Bacillus subtilis; (a); IN=<10% inhibition at highest concentration tested
T3 sequence (O34623 whole entry): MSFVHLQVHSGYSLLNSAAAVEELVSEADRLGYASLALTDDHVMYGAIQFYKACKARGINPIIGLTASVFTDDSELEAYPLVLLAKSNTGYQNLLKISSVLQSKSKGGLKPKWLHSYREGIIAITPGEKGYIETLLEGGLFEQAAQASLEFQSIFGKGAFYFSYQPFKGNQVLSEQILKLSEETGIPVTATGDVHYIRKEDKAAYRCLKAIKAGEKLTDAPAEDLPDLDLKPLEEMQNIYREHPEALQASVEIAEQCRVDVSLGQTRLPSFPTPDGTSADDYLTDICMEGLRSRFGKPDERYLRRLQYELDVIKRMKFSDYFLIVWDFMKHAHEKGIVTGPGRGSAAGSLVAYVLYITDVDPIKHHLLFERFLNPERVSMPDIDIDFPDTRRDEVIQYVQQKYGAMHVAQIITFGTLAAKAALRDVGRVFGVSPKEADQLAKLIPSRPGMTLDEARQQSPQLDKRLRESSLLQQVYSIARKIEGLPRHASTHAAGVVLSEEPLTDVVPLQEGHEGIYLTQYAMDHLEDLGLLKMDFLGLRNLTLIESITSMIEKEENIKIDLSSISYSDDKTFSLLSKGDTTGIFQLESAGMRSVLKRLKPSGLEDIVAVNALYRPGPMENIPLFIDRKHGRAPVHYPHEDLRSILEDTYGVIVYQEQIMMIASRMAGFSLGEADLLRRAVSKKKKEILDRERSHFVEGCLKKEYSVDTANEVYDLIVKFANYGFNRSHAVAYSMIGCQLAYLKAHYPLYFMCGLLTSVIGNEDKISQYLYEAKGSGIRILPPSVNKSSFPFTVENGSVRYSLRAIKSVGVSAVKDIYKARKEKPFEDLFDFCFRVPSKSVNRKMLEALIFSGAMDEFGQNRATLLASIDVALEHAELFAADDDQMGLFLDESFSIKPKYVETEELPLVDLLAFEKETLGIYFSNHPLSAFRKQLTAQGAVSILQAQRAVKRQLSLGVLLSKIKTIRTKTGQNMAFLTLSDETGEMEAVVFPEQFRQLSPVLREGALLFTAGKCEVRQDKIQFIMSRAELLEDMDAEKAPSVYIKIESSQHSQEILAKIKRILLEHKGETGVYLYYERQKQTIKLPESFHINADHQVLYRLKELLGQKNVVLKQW

[4] = target: T1, DNA polymerase III PolC-type; experiment: Inhibition of DNA polymerases IIIC produced by Bacillus subtilis; (a); IN=<10% inhibition at highest concentration tested
[5] = target: T2, DNA polymerase III subunit alpha; experiment: Inhibitory constant against DNA polymerases IIIE from Escherichia coli; (a)

T1 sequence (P13267 whole entry): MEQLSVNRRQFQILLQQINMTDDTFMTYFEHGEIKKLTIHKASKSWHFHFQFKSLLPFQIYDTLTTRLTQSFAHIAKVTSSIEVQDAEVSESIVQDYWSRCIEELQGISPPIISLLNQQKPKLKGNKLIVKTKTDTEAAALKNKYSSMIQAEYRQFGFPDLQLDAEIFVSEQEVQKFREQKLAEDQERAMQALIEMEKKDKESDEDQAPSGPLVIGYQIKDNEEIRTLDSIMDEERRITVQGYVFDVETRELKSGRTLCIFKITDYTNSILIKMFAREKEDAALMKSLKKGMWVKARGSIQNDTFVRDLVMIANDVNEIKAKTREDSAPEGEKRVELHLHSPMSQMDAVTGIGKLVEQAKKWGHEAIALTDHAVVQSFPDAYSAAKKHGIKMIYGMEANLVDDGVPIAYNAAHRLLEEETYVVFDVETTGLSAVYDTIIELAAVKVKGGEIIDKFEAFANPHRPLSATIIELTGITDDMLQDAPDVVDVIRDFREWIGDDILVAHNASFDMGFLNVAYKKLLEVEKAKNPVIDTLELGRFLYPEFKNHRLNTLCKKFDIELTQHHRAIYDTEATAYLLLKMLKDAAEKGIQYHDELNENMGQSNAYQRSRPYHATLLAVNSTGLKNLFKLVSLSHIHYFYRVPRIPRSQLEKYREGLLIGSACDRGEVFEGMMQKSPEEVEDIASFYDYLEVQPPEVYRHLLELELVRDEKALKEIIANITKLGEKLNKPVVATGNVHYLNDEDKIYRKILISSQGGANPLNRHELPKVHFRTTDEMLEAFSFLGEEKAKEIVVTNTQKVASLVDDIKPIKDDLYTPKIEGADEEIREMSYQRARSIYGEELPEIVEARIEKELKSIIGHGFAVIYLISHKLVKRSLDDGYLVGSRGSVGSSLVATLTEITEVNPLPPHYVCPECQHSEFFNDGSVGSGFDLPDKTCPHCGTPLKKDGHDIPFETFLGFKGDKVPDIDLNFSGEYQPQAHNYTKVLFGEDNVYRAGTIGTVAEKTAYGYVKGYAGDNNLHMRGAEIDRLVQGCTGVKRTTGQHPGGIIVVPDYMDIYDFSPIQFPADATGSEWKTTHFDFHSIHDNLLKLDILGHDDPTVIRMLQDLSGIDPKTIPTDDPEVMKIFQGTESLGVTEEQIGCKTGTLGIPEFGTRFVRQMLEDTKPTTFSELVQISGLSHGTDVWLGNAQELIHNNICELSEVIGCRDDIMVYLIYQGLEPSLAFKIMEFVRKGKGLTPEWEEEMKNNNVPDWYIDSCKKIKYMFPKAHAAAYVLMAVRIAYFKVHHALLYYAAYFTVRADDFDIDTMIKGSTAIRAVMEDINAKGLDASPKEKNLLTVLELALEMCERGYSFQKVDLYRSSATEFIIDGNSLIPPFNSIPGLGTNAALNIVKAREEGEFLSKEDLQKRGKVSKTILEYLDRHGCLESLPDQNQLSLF

CCc1cc(Nc2nc(O)c3[nH]cnc3n2)ccc1C was tested, and the Ki [1] was 2700 nM and the inhibition [2] was less than 10%.
With CCc1cc(Nc2nc(O)c3c(ncn3CCCCO)n2)ccc1C the inhibition [3] was less than 10% and the inhibition [2] was less than 10%.
With CS(=O)(=O)CCCCCn1cnc2nc(NCc3ccc(Cl)c(Cl)c3)nc(O)c21 the Ki [1] was 280 nM.
For CCc1cc(Nc2nc(O)c3ncn(CCCCO)c3n2)ccc1C, the inhibition [3] was less than 10%, the inhibition [2] was less than 10% and the inhibition [4] was less than 10%.
In the case of CCOCCn1cnc2c(=O)[nH]c(NCc3ccc(Cl)c(Cl)c3)nc21, the Ki [1] is reported as 116000 nM.
In the case of CCOC(=O)CCCn1cnc2nc(NCc3ccc(Cl)c(Cl)c3)[nH]c(=O)c21, the Ki [1] is reported as 150 nM.
For CC(C)C(=O)OCCCCCn1cnc2nc(NCc3ccc(Cl)c(Cl)c3)[nH]c(=O)c21, the Ki [1] was 370 nM.
In the case of COCCCCCn1cnc2nc(NCc3ccc(Cl)c(Cl)c3)[nH]c(=O)c21, the Ki [1] is reported as 70 nM.
With CSCCCCCn1cnc2nc(NCc3ccc(Cl)c(Cl)c3)[nH]c(=O)c21 the Ki [1] was 230 nM.
OCCCCn1cnc2c(O)nc(NCc3ccc(Cl)c(Cl)c3)nc21 showed a Ki [1] of 712000 nM.
Work on O=C(O)CCCn1cnc2c(=O)[nH]c(NCc3ccc(Cl)c(Cl)c3)nc21 yielded a Ki [1] of 28000 nM.
O=C(O)CCCn1cnc2nc(NCc3ccc(Cl)c(Cl)c3)nc(O)c21 was tested, and the Ki [1] was 170 nM.
CCOC(=O)CCCn1cnc2c(O)nc(NCc3ccc(Cl)c(Cl)c3)nc21 was tested, and the Ki [1] was 825000 nM.
C[S+]([O-])CCCCCn1cnc2nc(NCc3ccc(Cl)c(Cl)c3)nc(O)c21 (stereo unspecified) gave a Ki [1] of 93 nM.
Work on Oc1[nH]c(NCc2ccc(Cl)c(Cl)c2)nc2ncnc1-2 yielded a Ki [1] of 720 nM.
For C[C@@H](O)CCCCn1cnc2nc(NCc3ccc(Cl)c(Cl)c3)[nH]c(=O)c21, the Ki [1] was 52 nM.
O=c1[nH]c(NCc2ccc(Cl)c(Cl)c2)nc2ncn(CCOCCO)c12 showed a Ki [1] of 370 nM.
Molecule CCOCCn1cnc2nc(NCc3ccc(Cl)c(Cl)c3)[nH]c(=O)c21 has a Ki [1] of 330 nM.
CC(=O)O[C@H](C)CCCCn1cnc2nc(NCc3ccc(Cl)c(Cl)c3)[nH]c(=O)c21 gave a Ki [1] of 80 nM.
In the case of O=c1cc(NCc2ccc(Cl)c(CCl)c2)[nH]c(=O)[nH]1, the Ki [1] is reported as 420 nM.
For CCc1cc(Nc2cc(=O)[nH]c(=O)[nH]2)ccc1C, the Ki [5] was greater than 323 µM and the Ki [1] was 310 nM.
